How the values were obtained:
Assay type in all cases: functional, cell-based
[1] = target: ATP-dependent translocase ABCB1 (Mus musculus, UniProt P21447); test: TP_TRANSPORTER: increase in Daunomycin intracellular accumulation (Daunomycin: 1.9 uM, Tiamulin: 2 uM) in P388/ADR25 cells, flow cytometry; conditions: p388/adr25, 2 µM
[2] = target: ATP-dependent translocase ABCB1 (Homo sapiens, UniProt P08183); test: TP_TRANSPORTER: increase in Daunomycin intracellular accumulation (Daunomycin: 1.9 uM, Tiamulin: 2 uM) in CEM/VLB3.6 cells, flow cytometry; conditions: cem/vlb3.6, 2 µM
Sequence of ATP-dependent translocase ABCB1 (Homo sapiens, UniProt P08183) (P08183 whole entry): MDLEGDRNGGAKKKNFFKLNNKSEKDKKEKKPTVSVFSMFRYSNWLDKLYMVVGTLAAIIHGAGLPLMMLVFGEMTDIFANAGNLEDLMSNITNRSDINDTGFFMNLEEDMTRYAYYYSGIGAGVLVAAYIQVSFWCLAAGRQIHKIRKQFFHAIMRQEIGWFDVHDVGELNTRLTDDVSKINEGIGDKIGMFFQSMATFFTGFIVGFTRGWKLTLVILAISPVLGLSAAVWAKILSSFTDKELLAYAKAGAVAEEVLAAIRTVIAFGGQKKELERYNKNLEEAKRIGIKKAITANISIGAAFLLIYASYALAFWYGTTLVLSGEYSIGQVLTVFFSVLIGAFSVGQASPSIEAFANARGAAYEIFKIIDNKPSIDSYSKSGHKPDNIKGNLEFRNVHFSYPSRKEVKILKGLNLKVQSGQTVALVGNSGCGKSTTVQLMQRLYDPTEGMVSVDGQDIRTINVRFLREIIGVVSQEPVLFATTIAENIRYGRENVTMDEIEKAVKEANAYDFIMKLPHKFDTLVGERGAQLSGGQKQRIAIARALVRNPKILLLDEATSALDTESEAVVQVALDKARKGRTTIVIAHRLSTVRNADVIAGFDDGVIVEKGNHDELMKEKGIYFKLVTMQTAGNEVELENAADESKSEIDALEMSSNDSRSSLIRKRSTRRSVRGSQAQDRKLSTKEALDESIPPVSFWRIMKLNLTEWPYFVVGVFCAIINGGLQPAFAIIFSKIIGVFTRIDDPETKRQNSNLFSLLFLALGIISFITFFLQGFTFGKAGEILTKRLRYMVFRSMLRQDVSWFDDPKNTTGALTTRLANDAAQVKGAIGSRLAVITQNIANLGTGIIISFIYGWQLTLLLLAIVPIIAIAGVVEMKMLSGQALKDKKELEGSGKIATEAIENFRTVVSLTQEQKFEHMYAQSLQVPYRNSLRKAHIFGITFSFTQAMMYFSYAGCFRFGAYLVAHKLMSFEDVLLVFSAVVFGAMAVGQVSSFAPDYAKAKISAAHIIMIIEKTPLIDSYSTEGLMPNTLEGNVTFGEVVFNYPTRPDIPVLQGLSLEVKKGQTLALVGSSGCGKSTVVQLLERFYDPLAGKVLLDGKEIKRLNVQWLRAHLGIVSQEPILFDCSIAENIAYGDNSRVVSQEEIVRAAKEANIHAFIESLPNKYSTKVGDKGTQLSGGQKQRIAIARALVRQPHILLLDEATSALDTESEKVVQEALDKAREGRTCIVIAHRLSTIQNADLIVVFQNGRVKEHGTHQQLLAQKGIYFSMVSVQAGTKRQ

[3] = target: Multidrug resistance protein 1a (Rattus norvegicus) (UniProt Q6PSM0); test: TP_TRANSPORTER: increase in Daunomycin intracellular accumulation (Daunomycin: 1.9 uM, Tiamulin: 2 uM) in AS30-D/COL10 cells, flow cytometry
Sequence of Multidrug resistance protein 1a (Rattus norvegicus) (Q6PSM0 as listed by the source): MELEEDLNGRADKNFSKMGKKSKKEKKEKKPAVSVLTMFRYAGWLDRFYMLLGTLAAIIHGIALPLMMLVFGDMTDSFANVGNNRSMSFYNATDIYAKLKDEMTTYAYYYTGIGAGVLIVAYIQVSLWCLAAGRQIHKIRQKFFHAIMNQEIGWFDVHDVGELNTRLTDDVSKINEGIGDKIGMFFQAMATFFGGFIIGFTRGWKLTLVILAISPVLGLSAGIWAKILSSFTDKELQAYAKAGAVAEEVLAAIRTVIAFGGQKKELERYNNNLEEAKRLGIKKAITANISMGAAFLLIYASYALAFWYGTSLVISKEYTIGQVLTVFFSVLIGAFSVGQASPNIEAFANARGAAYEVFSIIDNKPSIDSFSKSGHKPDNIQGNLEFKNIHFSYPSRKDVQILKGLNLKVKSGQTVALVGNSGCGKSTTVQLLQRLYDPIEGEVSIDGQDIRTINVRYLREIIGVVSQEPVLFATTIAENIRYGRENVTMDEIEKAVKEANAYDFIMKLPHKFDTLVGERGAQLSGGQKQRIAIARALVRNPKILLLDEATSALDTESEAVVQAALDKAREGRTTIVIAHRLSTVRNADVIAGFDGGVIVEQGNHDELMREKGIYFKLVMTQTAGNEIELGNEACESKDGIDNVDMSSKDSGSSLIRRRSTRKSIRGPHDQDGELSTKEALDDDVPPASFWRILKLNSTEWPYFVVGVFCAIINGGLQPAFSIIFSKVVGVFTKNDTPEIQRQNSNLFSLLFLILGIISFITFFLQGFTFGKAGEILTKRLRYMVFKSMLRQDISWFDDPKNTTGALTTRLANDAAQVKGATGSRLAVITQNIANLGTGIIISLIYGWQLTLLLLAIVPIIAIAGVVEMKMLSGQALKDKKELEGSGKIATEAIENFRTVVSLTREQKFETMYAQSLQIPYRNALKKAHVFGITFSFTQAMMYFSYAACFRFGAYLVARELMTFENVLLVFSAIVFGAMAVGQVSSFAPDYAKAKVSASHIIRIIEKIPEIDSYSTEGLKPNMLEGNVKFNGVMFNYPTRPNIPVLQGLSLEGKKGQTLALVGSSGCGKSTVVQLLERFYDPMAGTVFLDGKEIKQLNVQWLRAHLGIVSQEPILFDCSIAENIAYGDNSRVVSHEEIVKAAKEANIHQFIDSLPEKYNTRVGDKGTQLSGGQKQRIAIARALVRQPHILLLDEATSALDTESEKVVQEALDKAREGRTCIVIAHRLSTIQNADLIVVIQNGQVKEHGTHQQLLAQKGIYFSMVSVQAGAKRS

Sequence of ATP-dependent translocase ABCB1 (Mus musculus, UniProt P21447) (P21447 whole entry): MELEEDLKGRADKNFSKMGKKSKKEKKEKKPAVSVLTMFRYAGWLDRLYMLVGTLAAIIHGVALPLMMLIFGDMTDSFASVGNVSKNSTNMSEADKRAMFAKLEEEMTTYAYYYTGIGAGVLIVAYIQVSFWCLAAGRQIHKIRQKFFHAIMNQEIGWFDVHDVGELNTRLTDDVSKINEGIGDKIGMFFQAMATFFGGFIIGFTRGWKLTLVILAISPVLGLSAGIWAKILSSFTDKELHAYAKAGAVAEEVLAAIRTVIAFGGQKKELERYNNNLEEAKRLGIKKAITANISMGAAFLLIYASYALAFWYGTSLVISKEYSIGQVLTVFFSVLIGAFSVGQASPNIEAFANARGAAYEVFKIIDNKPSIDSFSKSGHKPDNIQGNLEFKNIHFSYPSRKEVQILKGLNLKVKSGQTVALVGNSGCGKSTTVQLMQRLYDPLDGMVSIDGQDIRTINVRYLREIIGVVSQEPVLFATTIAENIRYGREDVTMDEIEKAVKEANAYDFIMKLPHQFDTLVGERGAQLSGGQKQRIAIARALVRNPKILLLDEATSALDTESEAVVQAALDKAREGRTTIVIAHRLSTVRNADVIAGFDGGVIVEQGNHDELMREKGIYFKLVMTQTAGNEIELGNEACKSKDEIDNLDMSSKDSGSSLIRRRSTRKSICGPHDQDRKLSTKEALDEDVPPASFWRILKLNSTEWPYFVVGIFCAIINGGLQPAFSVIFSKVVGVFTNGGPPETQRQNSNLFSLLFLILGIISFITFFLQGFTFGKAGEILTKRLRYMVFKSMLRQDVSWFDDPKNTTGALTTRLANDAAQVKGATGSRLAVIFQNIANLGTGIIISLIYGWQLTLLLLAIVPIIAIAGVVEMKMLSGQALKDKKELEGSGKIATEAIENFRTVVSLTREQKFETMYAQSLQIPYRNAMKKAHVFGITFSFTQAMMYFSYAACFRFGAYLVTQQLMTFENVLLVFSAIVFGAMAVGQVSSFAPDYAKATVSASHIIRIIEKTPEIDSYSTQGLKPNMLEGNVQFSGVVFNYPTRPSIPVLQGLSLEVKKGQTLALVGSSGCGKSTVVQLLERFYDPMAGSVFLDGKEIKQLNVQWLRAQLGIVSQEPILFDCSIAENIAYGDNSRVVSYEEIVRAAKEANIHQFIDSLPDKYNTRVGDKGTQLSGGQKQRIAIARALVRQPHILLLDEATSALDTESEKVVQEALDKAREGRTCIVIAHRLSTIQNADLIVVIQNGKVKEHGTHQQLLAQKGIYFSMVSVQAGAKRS

Which results are given for C=C[C@]1(C)C[C@@H](OC(=O)CSCCN(CC)CC)[C@]2(C)[C@H](C)CC[C@]3(CCC(=O)[C@H]32)[C@@H](C)[C@@H]1O [TIAMULIN]?
Activity [1]: inhibitor [+]; Activity [2]: inhibitor [+]; Activity [3]: inhibitor [+]
